Data taken from PubChem BioAssay (NCI).
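GI50: concentration for 50% inhibition of growth. TGI denotes the concentration required for complete inhibition of growth.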

Tests used:
Assay in all cases: NCI anticancer screen, dose series, 384-well format
[1] = system: OVCAR-3 ovarian
[2] = system: RXF 393 renal
[3] = system: UACC-257 melanoma
[4] = system: PC-3 prostate
[5] = system: LOX IMVI melanoma
[6] = system: MOLT-4 leukemia
[7] = system: SW-620 colon
[8] = system: HS 578T breast
[9] = system: BT-549 breast
[10] = system: MDA-MB-468 breast
[11] = system: NCI/ADR-RES ovarian
[12] = system: NCI-H226 lung
[13] = system: SF-295 CNS
[14] = system: SK-MEL-5 melanoma
[15] = system: OVCAR-4 ovarian
[16] = system: MDA-MB-435 melanoma
[17] = system: SK-OV-3 ovarian
[18] = system: T-47D breast
[19] = system: IGROV1 ovarian
[20] = system: RPMI-8226 leukemia
[21] = system: HT29 colon
[22] = system: COLO 205 colon
[23] = system: NCI-H522 lung
[24] = system: MCF7 breast
[25] = system: SF-539 CNS
[26] = system: A549 NSCLC
[27] = system: MALME-3M melanoma
[28] = system: NCI-H460 NSCLC
[29] = system: SN12C renal
[30] = system: NCI-H23 lung
[31] = system: SNB-19 CNS
[32] = system: HCC-2998 colon
[33] = system: U251 glioblastoma
[34] = system: SK-MEL-28 melanoma
[35] = system: CCRF-CEM leukemia
[36] = system: ACHN renal
[37] = system: CAKI-1 renal
[38] = system: TK-10 renal
[39] = system: MDA-MB-231 breast
[40] = system: UACC-62 melanoma
[41] = system: HOP-62 NSCLC
[42] = system: HL-60(TB) leukemia
[43] = system: M14 melanoma
[44] = system: HOP-92 NSCLC
[45] = system: 786-0 renal
[46] = system: SR leukemia
[47] = system: KM12 colon
[48] = system: HCT-116 colon
[49] = system: A498 renal
[50] = system: EKVX NSCLC
[51] = system: UO-31 renal
[52] = system: OVCAR-8 ovarian
[53] = system: HCT-15 colon
[54] = system: SF-268 CNS
[55] = system: NCI-H322M lung
[56] = system: K-562 leukemia
[57] = system: SNB-75 CNS
[58] = system: DU-145 prostate
[59] = system: OVCAR-5 ovarian
[60] = system: SK-MEL-2 melanoma

`Cc1cc(O)c(-c2ccc([C@@H](C)CN(C)C)cc2)c2c1[nH]c(=O)c1sccc12` gave a GI50 [1] of 0.189 µM, a TGI [1] of 0.381 µM and a GI50 [2] of 0.0146 µM. For the same compound, the TGI [2] was 0.0317 µM, the GI50 [3] was 0.831 µM and the TGI [3] was 2.09 µM. The GI50 [4] was 0.286 µM, the TGI [4] was 0.757 µM and the GI50 [5] was 0.253 µM. It also gave a TGI [5] of 0.58 µM, a GI50 [6] of 0.156 µM and a TGI [6] of 0.295 µM. For the same compound, the GI50 [7] was 0.443 µM, the TGI [7] was 1.26 µM and the GI50 [8] was 0.129 µM. The TGI [8] was 0.289 µM, the GI50 [9] was 0.192 µM and the TGI [9] was 0.451 µM. It also gave a GI50 [10] of 0.0278 µM, a TGI [10] of 0.0671 µM and a GI50 [11] of 2.06 µM. The TGI [11] was 4.65 µM, the GI50 [12] was 0.285 µM and the TGI [12] was 0.662 µM. It also gave a GI50 [13] of 1.81 µM, a TGI [13] of 3.68 µM and a GI50 [14] of 0.233 µM. It also gave a TGI [14] of 0.547 µM, a GI50 [15] of 0.199 µM and a TGI [15] of 0.4 µM. It also gave a GI50 [16] of 0.444 µM, a TGI [16] of 1.43 µM and a GI50 [17] of 0.171 µM. The TGI [17] was 0.41 µM, the GI50 [18] was 1.2 µM and the TGI [18] was 5.8 µM. It also gave a GI50 [19] of 0.362 µM, a TGI [19] of 1.27 µM and a GI50 [20] of 0.0368 µM. For the same compound, the TGI [20] was 0.108 µM, the GI50 [21] was 1.78 µM and the TGI [21] was 3.27 µM. The GI50 [22] was 1.99 µM, the TGI [22] was 4.05 µM and the GI50 [23] was 0.18 µM. The TGI [23] was 0.35 µM, the GI50 [24] was 0.0636 µM and the TGI [24] was 0.217 µM. It also gave a GI50 [25] of 0.133 µM, a TGI [25] of 0.369 µM and a GI50 [26] of 0.225 µM. The TGI [26] was 0.482 µM, the GI50 [27] was 1 µM and the TGI [27] was 2.19 µM. It also gave a GI50 [28] of 0.186 µM, a TGI [28] of 0.341 µM and a GI50 [29] of 0.224 µM. It also gave a TGI [29] of 0.571 µM, a GI50 [30] of 0.212 µM and a TGI [30] of 0.446 µM. For the same compound, the GI50 [31] was 0.335 µM, the TGI [31] was 1.11 µM and the GI50 [32] was 0.197 µM. It also gave a TGI [32] of 0.467 µM, a GI50 [33] of 0.173 µM and a TGI [33] of 1.1 µM. It also gave a GI50 [34] of 0.284 µM, a TGI [34] of 1.61 µM and a GI50 [35] of 0.199 µM. For the same compound, the TGI [35] was 0.399 µM, the GI50 [36] was 0.357 µM and the TGI [36] was 1.24 µM. It also gave a GI50 [37] of 0.292 µM, a TGI [37] of 0.996 µM and a GI50 [38] of 0.265 µM. The TGI [38] was 0.713 µM, the GI50 [39] was 0.265 µM and the TGI [39] was 0.682 µM. The GI50 [40] was 0.283 µM, the TGI [40] was 0.888 µM and the GI50 [41] was 0.206 µM. For the same compound, the TGI [41] was 0.401 µM, the GI50 [42] was 0.0197 µM and the TGI [42] was 0.0375 µM. It also gave a GI50 [43] of 0.413 µM, a TGI [43] of 1.25 µM and a GI50 [44] of 0.357 µM. The TGI [44] was 2.12 µM, the GI50 [45] was 0.05 µM and the TGI [45] was 0.193 µM. The GI50 [46] was 0.0757 µM, the TGI [46] was 0.179 µM and the GI50 [47] was 0.286 µM. The TGI [47] was 0.85 µM, the GI50 [48] was 0.2 µM and the TGI [48] was 0.383 µM. It also gave a GI50 [49] of 0.16 µM, a TGI [49] of 0.319 µM and a GI50 [50] of 0.451 µM. For the same compound, the TGI [50] was 1.5 µM, the GI50 [51] was 0.266 µM and the TGI [51] was 0.663 µM. For the same compound, the GI50 [52] was 0.223 µM, the TGI [52] was 0.447 µM and the GI50 [53] was 0.378 µM. The TGI [53] was 1.39 µM, the GI50 [54] was 0.338 µM and the TGI [54] was 1.42 µM. It also gave a GI50 [55] of 0.411 µM, a TGI [55] of 1.21 µM and a GI50 [56] of 0.295 µM. For the same compound, the TGI [56] was 0.746 µM, the GI50 [57] was 0.159 µM and the TGI [57] was 0.753 µM. For the same compound, the GI50 [58] was 0.279 µM and the TGI [58] was 0.706 µM.
In the case of `O=c1[nH]c(=O)n(C2CC(O)C(CO)O2)cc1C(F)(F)F` (stereo unspecified), the GI50 [1] is reported as 5.96 µM, the TGI [1] is reported as > 100 µM and the GI50 [2] is reported as 2.48 µM. The TGI [2] was 87.2 µM, the GI50 [3] was 12.8 µM and the TGI [3] was > 100 µM. For the same compound, the GI50 [4] was 80.1 µM, the TGI [4] was > 100 µM and the GI50 [5] was 0.813 µM. For the same compound, the TGI [5] was 9.83 µM, the GI50 [59] was 12 µM and the TGI [59] was > 100 µM. The GI50 [6] was 0.197 µM, the TGI [6] was 0.459 µM and the GI50 [7] was 1.24 µM. For the same compound, the TGI [7] was > 100 µM, the GI50 [8] was 25.4 µM and the TGI [8] was > 100 µM. The GI50 [9] was 0.763 µM, the TGI [9] was 9.01 µM and the GI50 [10] was 2.61 µM. The TGI [10] was 19.5 µM, the GI50 [11] was 3.88 µM and the TGI [11] was 36.5 µM. For the same compound, the GI50 [12] was 15.3 µM, the TGI [12] was 61.2 µM and the GI50 [13] was 3.21 µM. For the same compound, the TGI [13] was 12.3 µM, the GI50 [15] was 88.5 µM and the TGI [15] was > 100 µM. For the same compound, the GI50 [16] was 8.93 µM, the TGI [16] was > 100 µM and the GI50 [17] was 7.07 µM. For the same compound, the TGI [17] was > 100 µM, the GI50 [18] was 7.65 µM and the TGI [18] was > 100 µM. For the same compound, the GI50 [19] was 13 µM, the TGI [19] was > 100 µM and the GI50 [20] was 0.199 µM. The TGI [20] was 11.5 µM, the GI50 [21] was 13.4 µM and the TGI [21] was > 100 µM. For the same compound, the GI50 [23] was 21.8 µM, the TGI [23] was > 100 µM and the GI50 [24] was 0.212 µM. The TGI [24] was > 100 µM, the GI50 [25] was 4.81 µM and the TGI [25] was 20.4 µM. For the same compound, the GI50 [26] was 2.43 µM, the TGI [26] was > 100 µM and the GI50 [27] was 1.38 µM. For the same compound, the TGI [27] was > 100 µM, the GI50 [29] was 1.9 µM and the TGI [29] was 9 µM. The GI50 [30] was 2.06 µM, the TGI [30] was 11.3 µM and the GI50 [60] was > 100 µM. For the same compound, the TGI [60] was > 100 µM, the GI50 [31] was 3.45 µM and the TGI [31] was > 100 µM. For the same compound, the GI50 [33] was 4.87 µM, the TGI [33] was 79.7 µM and the GI50 [34] was 6.78 µM. The TGI [34] was > 100 µM, the GI50 [35] was 0.234 µM and the TGI [35] was 0.469 µM. It also gave a GI50 [36] of 0.519 µM, a TGI [36] of 2.95 µM and a GI50 [37] of 4.13 µM. For the same compound, the TGI [37] was > 100 µM, the GI50 [38] was 14.6 µM and the TGI [38] was > 100 µM. For the same compound, the GI50 [39] was 23.6 µM, the TGI [39] was > 100 µM and the GI50 [40] was 3.25 µM. For the same compound, the TGI [40] was 23 µM, the GI50 [41] was 2.27 µM and the TGI [41] was 11 µM. It also gave a GI50 [42] of 0.171 µM, a TGI [42] of 0.394 µM and a GI50 [43] of 2.42 µM. For the same compound, the TGI [43] was 16.1 µM, the GI50 [44] was 50.8 µM and the TGI [44] was > 100 µM. For the same compound, the GI50 [45] was 2.94 µM, the TGI [45] was 77.6 µM and the GI50 [47] was 7.51 µM. The TGI [47] was > 100 µM, the GI50 [48] was 0.698 µM and the TGI [48] was > 100 µM. The GI50 [49] was 7.94 µM, the TGI [49] was > 100 µM and the GI50 [50] was > 100 µM. The TGI [50] was > 100 µM, the GI50 [51] was 2.55 µM and the TGI [51] was 14.2 µM. The GI50 [52] was 4.72 µM, the TGI [52] was 30.2 µM and the GI50 [53] was 4.18 µM. For the same compound, the TGI [53] was > 100 µM, the GI50 [54] was 2.21 µM and the TGI [54] was 14.3 µM. The GI50 [55] was 66 µM, the TGI [55] was > 100 µM and the GI50 [56] was 0.705 µM. The TGI [56] was > 100 µM, the GI50 [57] was 15.9 µM and the TGI [57] was > 100 µM. It also gave a GI50 [58] of 0.53 µM and a TGI [58] of 8.6 µM.
